# Measured values from US9040532B2, “Alpha adrenergic receptor modulators” (Allergan, Inc., priority 2009, dated 2015).
# Where two headings read alike, the source gives them in different places.
# What was measured:
# Alpha 2A = biological target: T1, Alpha 2A (Homo sapiens, UniProt P08913); test: FLIPR assay, intracellular Ca2+ mobilization, alpha 2A; format: cell-based; details: for EC50: agonist, read-out: Alpha 2A Potency (EC50); for Alpha 2A relative efficacy compared to a standard full agonist: value in parentheses
# T1 sequence (P08913 1-465): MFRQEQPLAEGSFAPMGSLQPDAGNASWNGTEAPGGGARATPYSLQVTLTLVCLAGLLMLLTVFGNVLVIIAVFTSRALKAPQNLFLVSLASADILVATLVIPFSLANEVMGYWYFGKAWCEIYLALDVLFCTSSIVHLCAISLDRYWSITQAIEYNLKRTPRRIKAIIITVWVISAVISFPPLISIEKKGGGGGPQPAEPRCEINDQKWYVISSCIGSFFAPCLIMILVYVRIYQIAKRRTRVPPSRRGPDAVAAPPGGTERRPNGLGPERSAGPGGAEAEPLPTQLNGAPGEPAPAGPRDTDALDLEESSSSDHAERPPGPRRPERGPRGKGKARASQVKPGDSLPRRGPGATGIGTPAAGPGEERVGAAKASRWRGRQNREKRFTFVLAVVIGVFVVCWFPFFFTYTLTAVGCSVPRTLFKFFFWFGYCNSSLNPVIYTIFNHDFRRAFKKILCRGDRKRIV
# Description: The compounds described herein were tested for alpha adrenergic activity using a Fluorometric Imaging plate Reader (FLIPR) assay (Princen et al., 2003, Cytometry Part A. 51, pp. 35-45). Cells are loaded into a plate reader with a Ca^2+ dye indicator and incubated with various compounds. This assay is adequate for monitoring the intracellular Ca^2+ mobilization from fluorescent readings to evaluate receptor agonists. […] The compounds described herein activate alpha adrenergic receptors.
# [1] = system: Intraoccular Pressure (IOP); test: In-vivo intraocular pressure compound screening; details: normotensive male Dutch-Belted rabbits, single 50 μl topical drop, 0.15% or 1.0%; for IOP lowering: IOP 0.5-8 h vs 0 h baseline
# Description: The experimental animals used, were Normotensive male Dutch-Belted rabbits over 6 months in age (n=4/compound/dose screened). A single drop (50 μl) of the drug formulation, which yields 0.15% or 1.0% of the active metabolite was administered topically by pipette onto the right eye (treated eye) at approximately 0700 hours. Intraoccular Pressure (IOP) of the rabbits (treated and untreated eyes) was measured 0 hours before and at 0.5, 1, 2, 3, 4, 6 and 8 hours after topical eyedrop administration. IOP at the time of eyedrop administration (0 hours) was used as a baseline value. Prior to the tonometric measurements, 0.05% proparacaine (50 μl) was administered to each eye. Tonometric IOP measurements were obtained with a Mentor Pneumontonmeter. Additionally, all studies were masked. At least 1 week of wash-out time was allowed for each rabbit between dosings. All animals were examined for sedation, ocular irritation, and changes in pupil diameter throughout the course of the experiments. […] In this assay, Compound 10 lowered IOP about 35%.
# Alpha 2B [2] = biological target: T2, Alpha 2B (Homo sapiens, UniProt P18089); test: FLIPR assay, intracellular Ca2+ mobilization, alpha 2B; format: cell-based; details: FLIPR; for EC50: agonist, read-out: Alpha 2B Potency (EC50); for Alpha 2B relative efficacy compared to a standard full agonist: value in parentheses
# T2 sequence (P18089 1-450): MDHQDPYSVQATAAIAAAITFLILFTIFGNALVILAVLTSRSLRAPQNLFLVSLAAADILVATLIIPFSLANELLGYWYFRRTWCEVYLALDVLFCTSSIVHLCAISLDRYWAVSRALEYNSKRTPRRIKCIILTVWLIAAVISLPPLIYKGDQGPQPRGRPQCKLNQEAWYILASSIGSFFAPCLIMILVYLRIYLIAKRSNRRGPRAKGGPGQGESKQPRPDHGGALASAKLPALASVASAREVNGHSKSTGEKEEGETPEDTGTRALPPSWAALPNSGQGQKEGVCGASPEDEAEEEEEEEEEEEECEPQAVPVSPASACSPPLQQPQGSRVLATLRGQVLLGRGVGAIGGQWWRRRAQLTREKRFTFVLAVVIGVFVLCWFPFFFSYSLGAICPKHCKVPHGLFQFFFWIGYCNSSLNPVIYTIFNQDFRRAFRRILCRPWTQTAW
# Description: (§1) Cells are loaded into a plate reader with a Ca^2+ dye indicator and incubated with various compounds. This assay is adequate for monitoring the intracellular Ca^2+ mobilization from fluorescent readings to evaluate receptor agonists.
# Alpha 2C = biological target: T3, Alpha 2C (Homo sapiens, UniProt P18825); test: FLIPR assay, intracellular Ca2+ mobilization, alpha 2C; format: cell-based; details: for EC50: agonist, read-out: Alpha 2C Potency (EC50); for Alpha 2C relative efficacy compared to a standard full agonist: value in parentheses
# T3 sequence (P18825 1-462): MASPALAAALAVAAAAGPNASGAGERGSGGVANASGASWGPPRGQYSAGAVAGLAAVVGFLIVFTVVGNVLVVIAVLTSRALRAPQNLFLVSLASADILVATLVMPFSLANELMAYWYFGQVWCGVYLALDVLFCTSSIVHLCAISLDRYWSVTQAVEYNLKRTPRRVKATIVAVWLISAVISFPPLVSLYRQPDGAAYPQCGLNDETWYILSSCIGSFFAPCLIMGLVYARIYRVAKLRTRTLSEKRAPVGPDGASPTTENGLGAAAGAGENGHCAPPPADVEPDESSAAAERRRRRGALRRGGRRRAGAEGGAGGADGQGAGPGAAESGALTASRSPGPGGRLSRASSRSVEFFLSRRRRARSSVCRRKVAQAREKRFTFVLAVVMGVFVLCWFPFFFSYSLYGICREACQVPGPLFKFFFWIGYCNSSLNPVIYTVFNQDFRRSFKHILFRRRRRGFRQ
# Description: as §1
# Alpha 2B [3] = biological target: Alpha 2B (Homo sapiens, UniProt P18089); test: FLIPR assay, intracellular Ca2+ mobilization, alpha 2B; format: cell-based
# Description: as §1
SMILES,EC50 (Alpha 2A),Alpha 2A relative efficacy compared to a standard full agonist (Alpha 2A),EC50 (Alpha 2B [2]),Alpha 2B relative efficacy compared to a standard full agonist (Alpha 2B [2]),EC50 (Alpha 2C),Alpha 2C relative efficacy compared to a standard full agonist (Alpha 2C),EC50 (Alpha 2B [3]),IOP lowering [1],IOP lowered ([1]; vs 0 h baseline)
"Cc1c(NC2=NCCC2)ccc2nccnc12 [Compound 27, N-(3,4-Dihydro-2H-pyrrol-5-yl)-5-methylquinoxalin-6-amine]",121 nM,(0.89),–,–,16 nM,(0.9),–,show potential in lowering IOP,–
"Clc1c(NC2=NCCC2)ccc2[nH]cnc12 [Compound 11, 4-Chloro-N-(3,4-dihydro-2H-pyrrol-5-yl)-1H-benzimidazol-5-amine]",216 nM,(0.98),513 nM,(0.69),35 nM,(1),–,show potential in lowering IOP,–
"Brc1c(NC2=NCCC2)ccc2nccnc12 [Compound 8, 5-Bromo-N-(3,4-dihydro-2H-pyrrol-5-yl)quinoxalin-6-amine]",1070 nM,(0.81),2200 nM,(0.21),1050 nM,(0.82),–,–,–
c1cc2c(cc1NC1=NCCC1)CCCC2,–,–,–,–,–,–,293 nM,–,–
"Cc1c(NC2=NCCC2)ccc2c1NCCO2 [Compound 36, N-(3,4-Dihydro-2H-pyrrol-5-yl)-5-methyl-3,4-dihydro-2H-1,4-benzoxazin-6-amine]",583 nM,(0.68),579 nM,(0.77),327 nM,(0.87),–,–,–
"Cc1c(NC2=NCCC2)ccc2[nH]cnc12 [Compound 12, N-(3,4-dihydro-2H-pyrrol-5-yl)-4-methyl-1H-benzimidazol-5-amine]",203 nM,(1),510 nM,(0.86),58 nM,(1),–,show potential in lowering IOP,–
"Clc1c(NC2=NCCC2)ccc2cccnc12 [Compound 9, 8-Chloro-N-(3,4-dihydro-2H-pyrrol-5-yl)quinolin-7-amine]",429 nM,(1),1050 nM,(0.38),218 nM,(0.97),–,show potential in lowering IOP,–

# Continued by falling EC50 (Alpha 2A), values first:
EC50 (Alpha 2A),Alpha 2A relative efficacy compared to a standard full agonist (Alpha 2A),EC50 (Alpha 2B [2]),Alpha 2B relative efficacy compared to a standard full agonist (Alpha 2B [2]),EC50 (Alpha 2C),Alpha 2C relative efficacy compared to a standard full agonist (Alpha 2C),EC50 (Alpha 2B [3]),SMILES,IOP lowering [1],IOP lowered ([1]; vs 0 h baseline)
118 nM,(0.85),17 nM,(0.96),6 nM,(0.97),–,"c1cc2cc(/N=C3\CCCN3)cnc2[nH]1 [Compound 26, N-[(2E)-Pyrrolidin-2-ylidene]-1H-pyrrolo[2,3-b]pyridin-5-amine]",–,–
96 nM,(.98),117 nM,(.76),25 nM,(.92),–,"Brc1c(NC2=NCCC2)ccc2scnc12 [Compound 31, 4-Bromo-N-(3,4-dihydro-2H-pyrrol-5-yl)-1,3-benzothiazol-5-amine]",–,–
61 nM,(0.81),30 nM,(0.16),5 nM,(0.88),–,"c1ccc2c(NC3=NCCC3)cccc2c1 [Compound 1, N-1-Naphthyl-3,4-dihydro-2H-pyrrol-5-amine]",–,–
6 nM,(0.98),80 nM,(0.2),< 1 nM,(1),–,"Cc1c(NC2=NCCC2)ccc2cccnc12 [Compound 29, N-(3,4-Dihydro-2H-pyrrol-5-yl)-8-methylquinolin-7-amine]",show potential in lowering IOP,–
3 nM,(1),90 nM,(0.76),1.5 nM,(0.94),–,"Brc1c(NC2=NCCC2)ccc2[nH]cnc12 [Compound 10, 4-Bromo-N-(3,4-dihydro-2H-pyrrol-5-yl)-1H-benzimidazol-5-amine]",show potential in lowering IOP,about 35%
